Assay results from PMC3726044 (Biochemistry, 2013).

Experiments:
ChsE1-ChsE2 = ChsE1-ChsE2 (Mycobacterium tuberculosis, UniProt P71857+P71858)
[1] = molecular target: T1, ChsE2 (Rv3543c), tagless, expressed from the cistronic construct pigr5 (Mycobacterium tuberculosis H37Rv, UniProt P71858 1-387); assay: pull-down
T1 sequence: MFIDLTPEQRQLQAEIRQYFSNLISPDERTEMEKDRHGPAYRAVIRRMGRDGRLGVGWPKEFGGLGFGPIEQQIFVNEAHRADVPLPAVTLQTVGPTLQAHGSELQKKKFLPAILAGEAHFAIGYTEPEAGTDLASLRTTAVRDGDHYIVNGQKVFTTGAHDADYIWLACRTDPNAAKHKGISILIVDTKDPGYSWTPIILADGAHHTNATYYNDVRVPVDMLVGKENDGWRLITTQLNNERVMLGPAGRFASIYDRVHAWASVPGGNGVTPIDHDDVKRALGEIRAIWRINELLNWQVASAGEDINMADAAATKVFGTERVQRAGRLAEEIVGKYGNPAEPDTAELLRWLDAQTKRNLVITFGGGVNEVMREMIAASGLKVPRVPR

## Cc1cc2nc3c(=O)[nH]c(=O)nc-3n(C[C@H](O)[C@H](O)[C@H](O)COP(=O)(O)OP(=O)(O)OC[C@H]3O[C@@H](n4cnc5c(N)ncnc54)[C@H](O)[C@@H]3O)c2cc1C [FAD]
ChsE1-ChsE2
  LC/UV/MS of released flavin (m/z 786), UV-visible spectrum: ChsE1-ChsE2 is isolated as a holoprotein with FAD cofactor

B1: ChsE1 (Rv3544c), N-terminal His6 tagged, expressed from the cistronic construct pigr5 (enzyme)
chain: MDFDPTAEQQAVADVVTSVLERDISWEALVCGGVTALPVPERLGGDGVGLFEVGALLTEVGRHGAVTPALATLGLGVVPLLELASAEQQDRFLAGVAKGGVLTAALNEPGAALPDRPATSFVGGRLSGTKVGVGYAEQADWMLVTADNAVVVVSPTADGVRMVRTPTSNGSDEYVMTMDGVAVADCDILADVAAHRVNQLALAVMGAYADGLVAGALRLTADYVANRKQFGKPLSTFQTVAAQLAEVYIASRTIDLVAKSVIWRLAEDLDAGDDLGVLGYWVTSQAPPAMQICHHLHGGMGMDVTYPMHRYYSTIKDLTRLLGGPSHRLELLGARCSLT
[1]
  binding result: binds
